{
  "source": "patent US20260060936A1",
  "about": "“INDOLIUM-BASED STABILIZERS OF HYDROPHOBIC DRUGS” (TECHNION RESEARCH & DEVELOPMENT FOUNDATION LTD., priority 2022, published 2026)",
  "key": {"3T3 cells": {"system": "3T3 cells", "test": "Image-based cell counting toxicity assay", "design": "species or system mouse", "conditions": "free drug; attributed to >5% DMSO in the medium", "procedure": "Polymers toxicity assay in 2D. 3T3 Cells were seeded in 96 well plates at a 30% confluency (6000 cells per well) and allowed to adhere for 24 h. Polymers were purified with Sephadex G25 columns, nanoparticles were suspended in DDW and added to the wells. Untreated cells (control) were used to establish 100% viability. The effect on cell viability was measured with MTT (5 mg/ml, Glentham Life Sciences, UK).\nIn-vitro toxicity and anti-tumor efficacy experiments. First, we tested the three leading copolymers for in-vitro cytotoxicity, using mouse embryonic fibroblast cells (3T3 cells) as a non-cancerous model (FIG. 12). The copolymers were purified with Sephadex G25 columns and were serially diluted in a 96-well plate seeded with the cells. We used two separate viability assays: MTT and an image-based cell counting method using automated microscopy. In the MTT assay we found no reduction in cell viability over control, even in the highest concentration of polymers (FIG. 12, upper and middle panels). […] The cells morphology was not changed following incubation with the polymers, though at higher concentrations intracellular dark vesicles could be observed, indicating cellular uptake into the endo-lysosomal pathway (FIG. 13)."}, "[1]": {"test": "DLS size, PDI and stability of copolymer-stabilized nanoparticles (Study 2)", "format": "physicochemical", "conditions": "nilotinib nanoparticles", "procedure": "Preparation of nanoparticles. Drugs dissolved in DMSO (Carlo Erba, 10 mg/ml) were added under slight vortex to aqueous dye solution, buffered with 0.1M sodium bicarbonate. IR783 (Sigma-Aldrich) and the polymers' concentrations were 2 mg/ml. […] If the particles were cleaned in centrifuge, the solution was sonicated using Sonics' Vibra-cell ultrasonic processor (20% amplitude, 3 seconds pulses) until homogenous.\nCharacterization of nanoparticles. DLS measurements were conducted using a Zetasizer Nano ZS (Malvern Panalytical, Malvern, UK)."}, "[2]": {"test": "Long-term stability and shelf-life of nanoparticles (size and PDI over time)", "format": "physicochemical", "conditions": "trametinib nanoparticles with different dyes; within the first 24 hours", "procedure": "(§1) Manual preparation of nanoparticles. 100 μL of drugs dissolved in DMSO (10 mg/ml) were added under slight vortexing to 0.5 ml of 0.1 M sodium bicarbonate buffer containing 1.6 mg/ml R595 (100 μl from 10 mg/ml stock solution in 0.5 ml). For comparison with other stabilizers, the R595 was replaced with the following excipients: Pluronic F-127, sodium lauryl sulfate (SDS), carboxymethyl cellulose (CMC), α-cyclodextrin (αCD), β-cyclodextrin (βCD), βCD-SO3, and human serum albumin (HSA). All compounds were dissolved as 10 mg/ml in DDW. Further comparison of R595 with IR783/IR820 based nanoparticles was also performed in DDW. The solutions were centrifuged (30,000 g, 15 min, room temperature) and the pellet was resuspended in 1 ml of DDW. In the automation process, using the Andrew Alliance pipetting robot (Waters Corp, MA), the nanoparticles were purified using a PD-10 desalting column (Cytiva, Marlborough, MA) and 1.7 ml of eluent was collected after 2.5 ml void volume (defined by the vendor).\nCharacterization of nanoparticles. Dynamic light scattering (DLS) measurements were conducted using a Zetasizer Nano ZS (Malvern Panalytical, Malvern, UK)."}, "KPL": {"system": "KPL", "test": "Cell viability assay in 2D (anti-cancer drug-screen)", "format": "cell-based, mice", "procedure": "(§2) Cell viability assay in 2D. Cells were seeded in 96 well plates at a 30% confluency and allowed to adhere for 24 h. All drugs were dissolved in DMSO. Nanoparticles were suspended in DDW and were added to the wells after dilution with growth medium. Untreated cells (control) were used to establish 100% viability. The effect on cell viability was measured both with Promega® CellTiter-Glo® (CTG) and with images taken by the Lionheart followed by a cell count feature provided by the vendor (BioTeK)."}, "HCT116": {"system": "HCT116", "test": "Cell viability assay in 2D (anti-cancer drug-screen)", "format": "cell-based, human", "procedure": "as §2"}, "[3]": {"test": "DLS size and PDI of drug nanoparticles with dye stabilizers (Study 1)", "format": "physicochemical", "conditions": "for nanoparticle formation with IR783: stabilizer IR783; for nanoparticle formation with R595: stabilizer R595", "procedure": "as §1, with “For” for “Manual preparation of nanoparticles. 100 μL of drugs dissolved in DMSO (10 mg/ml) were added under slight vortexing to 0.5 ml of 0.1 M sodium bicarbonate buffer containing 1.6 mg/ml R595 (100 μl from 10 mg/ml stock solution in 0.5 ml). For”, “R595” left out, “vendor). Characterization of nanoparticles. Dynamic light scattering (DLS) measurements were conducted using a Zetasizer Nano ZS (Malvern Panalytical, Malvern, UK).” for “vendor).”"}, "KPL cells": {"system": "KPL cells", "conditions": "mouse, in vivo, ip", "procedure": "KRAS driven lung tumor studies. Six-weeks-old female C57BL/6J mice strain were purchased from Envigo RMS. Inducing tumors in the lung was done by injecting 10^5 KPL cells suspended in 200 μl of PBS intravenously (IV) via the tail vein. […] For efficacy studies, treatments were administered biweekly for ten weeks. For safety studies, immunohistochemistry (H&E) was done on treated mice. Animals were euthanized using CO2 inhalation. Mice were housed in air-filtered laminar flow cabinets with a 12-hr light/dark cycle and food and water ad libitum."}},
  "data": [
    {"smiles": "CNC(=O)c1ccc(N2C(=S)N(c3ccc(C#N)c(C(F)(F)F)c3)C(=O)C2(C)C)cc1F", "note": "[Free enzalutamide, enzalutamide]", "values": [
      {"measurement": "toxicity in 3T3 cells", "setting": "3T3 cells", "value": "slight toxicity in high concentrations"}
    ]},
    {"smiles": "CC1(C)C(=CC=C2CCCC(C=CC3=[N+](CCCCS(=O)(=O)[O-])c4ccccc4C3(C)C)=C2Cl)N(CCCCS(=O)(=O)[O-])c2ccccc21.[Na+]", "note": "[IR783]", "values": [
      {"measurement": "time to aggregation", "setting": "[1]", "value": "≤ 24", "unit": "h"}
    ]},
    {"smiles": "CC1(C)C(=CC=C2CCCC(C=CC3=[N+](CCCCS(=O)(=O)[O-])c4ccc5ccccc5c4C3(C)C)=C2Cl)N(CCCCS(=O)(=O)[O-])c2ccc3ccccc3c21.[Na+]", "note": "[IR820]", "values": [
      {"measurement": "stabilizer comparison (size and PDI)", "setting": "[2]", "value": "better stabilizer than IR783"}
    ]},
    {"smiles": "CC(C)C[C@H](NC(=O)[C@H](CCc1ccccc1)NC(=O)CN1CCOCC1)C(=O)N[C@@H](Cc1ccccc1)C(=O)N[C@@H](CC(C)C)C(=O)[C@@]1(C)CO1", "note": "[carfilzomib]", "values": [
      {"measurement": "potency in cell viability drug-screen with 7 drugs", "setting": "KPL", "value": "highest potency"},
      {"measurement": "potency in cell viability drug-screen with 7 drugs", "setting": "HCT116", "value": "highest potency"}
    ]},
    {"smiles": "CCc1c2c(nc3ccc(OC(=O)N4CCC(N5CCCCC5)CC4)cc13)-c1cc3c(c(=O)n1C2)COC(=O)[C@]3(O)CC", "note": "[irinotecan]", "values": [
      {"measurement": "nanoparticle formation with IR783", "setting": "[3]", "value": "failed to form nanoparticles"},
      {"measurement": "nanoparticle formation with R595", "setting": "[3]", "value": "formed stable nanoparticles"}
    ]},
    {"smiles": "COc1cc2nccc(Oc3ccc(NC(=O)NC4CC4)c(Cl)c3)c2cc1C(N)=O", "note": "[lenvatinib]", "values": [
      {"measurement": "nanoparticle formation with IR783", "setting": "[3]", "value": "failed to form nanoparticles"},
      {"measurement": "nanoparticle formation with R595", "setting": "[3]", "value": "formed stable nanoparticles"}
    ]},
    {"smiles": "CC(=O)Nc1cccc(-n2c(=O)n(C3CC3)c(=O)c3c(Nc4ccc(I)cc4F)n(C)c(=O)c(C)c32)c1", "note": "[trametinib]", "values": [
      {"measurement": "toxicity as observed with weight changes", "setting": "KPL cells", "value": "no dose limiting toxicities"}
    ]}
  ]
}
